Reference: paper PMC10276154, “Development of the nonreceptor tyrosine kinase FER-targeting PROTACs as a potential strategy for antagonizing ovarian cancer cell motility and invasiveness” (The Journal of Biological Chemistry, 2023)

Biological target: FER (Homo sapiens, UniProt P16591)
Assay: pY402-FER autophosphorylation immunoblot in HEK293FT cells transfected with pLV-FER, […] h
Format: cell-based

Chain of FER (P16591 whole entry): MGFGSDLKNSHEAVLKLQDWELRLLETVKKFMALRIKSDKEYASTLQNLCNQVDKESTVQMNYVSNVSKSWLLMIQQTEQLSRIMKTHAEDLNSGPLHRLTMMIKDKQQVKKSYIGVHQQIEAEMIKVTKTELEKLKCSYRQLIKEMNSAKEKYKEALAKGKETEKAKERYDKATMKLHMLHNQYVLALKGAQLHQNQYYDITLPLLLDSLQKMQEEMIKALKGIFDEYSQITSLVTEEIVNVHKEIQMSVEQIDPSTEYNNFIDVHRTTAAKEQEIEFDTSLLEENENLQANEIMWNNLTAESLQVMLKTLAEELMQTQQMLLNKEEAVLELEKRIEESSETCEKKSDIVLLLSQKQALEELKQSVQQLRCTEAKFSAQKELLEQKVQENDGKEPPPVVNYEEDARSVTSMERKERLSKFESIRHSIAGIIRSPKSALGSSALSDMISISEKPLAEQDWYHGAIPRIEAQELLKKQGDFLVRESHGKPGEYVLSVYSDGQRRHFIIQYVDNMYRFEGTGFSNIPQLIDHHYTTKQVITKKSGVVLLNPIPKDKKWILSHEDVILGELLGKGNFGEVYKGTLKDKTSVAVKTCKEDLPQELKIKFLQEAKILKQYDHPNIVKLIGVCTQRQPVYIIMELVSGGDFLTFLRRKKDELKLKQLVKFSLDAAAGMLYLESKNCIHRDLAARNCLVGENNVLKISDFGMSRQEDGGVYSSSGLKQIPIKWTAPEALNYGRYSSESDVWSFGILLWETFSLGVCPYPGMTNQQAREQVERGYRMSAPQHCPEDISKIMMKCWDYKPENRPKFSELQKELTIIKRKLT

SMILES: COc1cc(N2CCC(N3CCN(C)CC3)CC2)ccc1Nc1ncc(Cl)c(Nc2ccccc2P(C)(C)=O)n1 [brigatinib]
- IC50: 138 nM
